The target in test [1] is Class C β-lactamase of Enterobacter cloacae P-99 (Enterobacter cloacae, UniProt P05364). Briefly: IC50 for inhibition of Class C β-lactamase of Enterobacter cloacae P-99 (nitrocefin hydrolysis). The test is classed as biochemical. The procedure:
(§1) Representative compounds of formula I were evaluated as inhibitors of the Class C β-lactamase of Enterobacter cloacae P-99, a cephalosporinase, and TEM-1, a penicillinase, by relative IC50 analysis. The IC50 value represents the concentration of inhibitor required to effect a 50% loss of activity of free enzyme. The IC50 value of each compound was determined as follows. Following a 10 minute incubation of a dilute solution of enzyme (2.56 nM) and inhibitor (<0.64 mM), a […] of this incubation mixture was then further diluted into 1 mL nitrocefin solution, and the rate of hydrolysis was measured during a 1 minute period by monitoring the absorbance of nitrocefin as a function of time.

The next test addresses TEM-1, a penicillinase (Escherichia coli, UniProt P62593). The experiment in a line: IC50 for inhibition of TEM-1 β-lactamase (nitrocefin hydrolysis). The test is classed as biochemical. The settings on record: read-out: IC50 Values for Inhibition of β-lactamase Derived from TEM-1. The protocol:
as §1

Where [2] appears, read: read-out: IC50 Values for Inhibition of β-lactamase Derived from P-99.
The mark [3] stands for this setting: Table 1, 10 minute incubation of enzyme (2.56 nM) and inhibitor, nitrocefin hydrolysis, relative to tazobactam standard.
Setting [4] is: Table 1, 10 minute incubation of enzyme (2.56 nM) and inhibitor, nitrocefin hydrolysis, relative to tazobactam standard, read-out: IC50 Values for Inhibition of β-lactamase Derived from P-99.
Setting [5] is: Table 2, compounds of formula IV, procedure similar to Table 1.
Setting [6] is: Table 2, compounds of formula IV, procedure similar to Table 1, read-out: IC50 Values for Inhibition of β-lactamase Derived from P-99.

Where a name gives a salt, the structure may show the parent alone. Read-outs that look alike come from different tables or passages of the source. Bounds are passed on as bounds.

TEM-1, a penicillinase, sequence (P62593 24-286 limits assumed): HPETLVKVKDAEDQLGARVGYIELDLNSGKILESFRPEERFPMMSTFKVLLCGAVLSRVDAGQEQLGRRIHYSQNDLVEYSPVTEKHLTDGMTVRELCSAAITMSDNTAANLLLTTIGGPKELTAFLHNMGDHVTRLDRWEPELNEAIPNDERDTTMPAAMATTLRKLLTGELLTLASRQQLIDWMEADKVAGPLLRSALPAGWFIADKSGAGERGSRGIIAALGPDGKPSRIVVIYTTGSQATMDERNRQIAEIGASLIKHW
Class C β-lactamase of Enterobacter cloacae P-99, sequence (P05364 21-381): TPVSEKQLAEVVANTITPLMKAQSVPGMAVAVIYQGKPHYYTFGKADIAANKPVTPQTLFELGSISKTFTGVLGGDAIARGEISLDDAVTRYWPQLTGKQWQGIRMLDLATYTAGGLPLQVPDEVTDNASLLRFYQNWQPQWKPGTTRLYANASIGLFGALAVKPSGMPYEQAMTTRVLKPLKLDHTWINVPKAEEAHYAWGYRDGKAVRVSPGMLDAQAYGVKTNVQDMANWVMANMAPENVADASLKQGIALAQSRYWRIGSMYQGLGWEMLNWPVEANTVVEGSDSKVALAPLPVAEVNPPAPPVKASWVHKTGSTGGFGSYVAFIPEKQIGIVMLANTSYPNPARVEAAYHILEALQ

Consider `C=C1C(COC(C)=O)=C(C(=O)O)N2C(=O)C(=Cc3ccccn3)C2S1(=O)=O` (stereo not shown) [Compound 6a, Sodium Salt of 7-[(Z)-(2′-Pyridyl)methylene]-2-(exomethylidene)cephalosporanic Acid Sulfone], for which, in test [1], the IC50 (commonly the concentration needed to halve the response being measured) was found to be 0.165 µM. Turning to `C=C1C(COC(C)=O)=C(C(=O)O)N2C(=O)C(=CC(=O)OC(C)(C)C)C2S1(=O)=O` (stereo not shown) [Compound 6b, Sodium Salt of 7-[(Z)-(tert-Butoxycarbonyl)methylene]-2-(exomethylidene)cephalosporinate Sulfone], the IC50 in test [1] (setting [2]) amounted to 1.55 µM. For the compound `C=C1C(C)=C(C(=O)O)N2C(=O)C(=Cc3ccccn3)C2S1(=O)=O` (stereo not shown) [Compound 6c, Sodium Salt of 7-((Z)-(2″-Pyridinyl)methylene]-3′-desacetoxy-2-(exomethylidene)cephalosporinate Sulfone], the IC50 in test [1] (setting [2]) was 0.039 µM.

`C=C1C(C)=C(C(=O)O)N2C(=O)C(=CC(=O)OC(C)(C)C)C2S1(=O)=O` (stereo not shown) [Compound 6d, Sodium Salt of 7-[(Z)-(tert-Butoxycarbonyl)methylene]-3′-desacetoxy-2(exomethylidene)cephalosporinate Sulfone]: the IC50 in test [1] (setting [2]) was determined as 48.6 µM.

As for `C=C1C(CSc2nnnn2C)=C(C(=O)O)N2C(=O)C(=CC(=O)OC(C)(C)C)C2S1(=O)=O` (stereo not shown) [Compound 6f, Sodium Salt of Benzhydryl 7-[(Z)-(tert-Butylcarboxy)methylene]-3′-desacetoxy-2-exomethylidene-3′-[1″-methyl-1″H-tetrazol-5″-yl)thio]cephalosporinate Sulfone], the IC50 in test [1] (setting [2]) came to 2.38 µM. `C=C1C(COC(C)=O)=C(C(=O)O)N2C(=O)/C(=C/C(=O)O)C2S1(=O)=O` (stereo not shown) [Compound 6h, Disodium Salt of 7-[(Z)-(Carboxy)methylene]-2-(exomethylidene)-cephalosporinate Sulfone]: the IC50 on TEM-1, a penicillinase (setting [3]) came to 498 µM; in test [1] (setting [4]), 2.49 µM. Turning to `C=C1C(C)=C(C(=O)O)N2C(=O)/C(=C/C(=O)O)C2S1(=O)=O` (stereo not drawn) [Compound 6i, Disodium Salt 7-[(Z)(Carboxy)methylene]-3′-desacetoxy-2-(exo-methylidene)cephalosporinate Sulfone], the IC50 on TEM-1, a penicillinase (setting [3]) was found to be 277 µM; in test [1] (setting [4]), 36.8 µM.

For the compound `N#C/C=C/C1=C(C(=O)O)N2C(=O)/C(=C/c3ccccn3)C2S(=O)(=O)C1` (stereo not shown) [Compound 13a, Sodium 3-[2′E-(Cyanoethenyl)]-1,1-dioxo-7Z-[(2″-pyridyl)methylidene]-3-cephem-4-carboxylate], the IC50 at TEM-1, a penicillinase (setting [5]) is 2.7 µM; in test [1], 0.01 µM. For `COC(=O)/C=C/C1=C(C(=O)O)N2C(=O)/C(=C/c3ccccn3)C2S(=O)(=O)C1` (stereo not shown) [Compound 13b, Sodium 1,1-Dioxo-3-[2′E-(methoxycarbonylethenyl)]-7Z-[(2″-pyridyl)methylidene]-3-cephem-4-carboxylate], the IC50 was determined as 0.02 µM on TEM-1, a penicillinase (setting [5]) and 0.2 µM in test [1].

For `O=C(O)C1=C(/C=C/c2cccc[n+]2[O-])CS(=O)(=O)C2/C(=C\c3ccccn3)C(=O)N12` (stereo not shown) [Compound 13c, Sodium 1,1-Dioxo-3-{2′E-[2″-(pyridin-N-oxide)ethenyl]}-7Z-[(2′″-pyridyl)methylidene]-3-cephem-4-carboxylate], the IC50 was 0.006 µM on TEM-1, a penicillinase (setting [5]) and 0.6 µM in test [1] (setting [6]). As for `CC(C)(C)OC(=O)/C=C/C1=C(C(=O)O)N2C(=O)/C(=C/c3ccccn3)C2S(=O)(=O)C1` (stereo not shown) [Compound 13e, Sodium 1,1-Dioxo-3-[2′E-(t-butoxycarbonylethenyl)]-7Z-[(2″-pyridyl)methylidene]-3-cephem-4-carboxylate], the IC50 in test [1] (setting [6]) turned out to be 1.48 µM. As for `COC(=O)/C(Cl)=C/C1=C(C(=O)O)N2C(=O)/C(=C/c3ccccn3)C2S(=O)(=O)C1` (stereo not shown) [Compound 13f], the IC50 was 0.02 µM on TEM-1, a penicillinase (setting [5]) and 0.2 µM in test [1] (setting [6]).

Consider `O=C(O)/C=C/C1=C(C(=O)O)N2C(=O)/C(=C/c3ccccn3)C2S(=O)(=O)C1` (stereo not shown) [Compound 13g, Disodium 3-[2′E-Carboxyethenyl]-1,1-dioxo-7Z-[(2″-pyridyl)methylidene]-3-cephem-4-carboxylate], for which the IC50 on TEM-1, a penicillinase (setting [5]) was determined as 2.52 µM; in test [1] (setting [6]) it was 0.31 µM.

As to `N#CC1=C(C(=O)O)N2C(=O)/C(=C/c3ccccn3)C2S(=O)(=O)C1` (stereo not shown) [Compound 19, Sodium 1,1-Dioxo-3-cyano-7Z-[(2′-pyridyl)methylidene]-3-cephem-4-carboxylate], the IC50 on TEM-1, a penicillinase (setting [5]) was 2.34 µM; in test [1], 0.029 µM.

Consider `CC(=O)OCC1=C(C(=O)O)N2C(=O)C(=Cc3ccccn3)C2S(=O)(=O)C1` (stereo not shown) [II: R1=2-pyr, R3=CH2OAc, reference compound], for which the IC50 at TEM-1, a penicillinase stood at 14.4 µM; in test [1], 1.35 µM. Consider `CC1=C(C(=O)O)N2C(=O)/C(=C/c3ccccn3)C2S(=O)(=O)C1` (stereo not shown) [II: R1=2-pyr, R3=CH3, reference compound], for which the IC50 on TEM-1, a penicillinase amounted to 377 µM; in test [1] it was 6.1 µM.

For the compound `Cn1nnnc1SCC1=C(C(=O)O)N2C(=O)C(=CC(=O)OC(C)(C)C)C2S(=O)(=O)C1` (stereo not shown) [II: R1=CO2-t-Bu, R3=CH2S(C2N4H3), reference compound], the IC50 was 0.123 µM at TEM-1, a penicillinase and 112 µM in test [1].

As for `CC1=C(C(=O)O)N2C(=O)C(=CC(=O)OC(C)(C)C)C2S(=O)(=O)C1` (stereo not shown) [II: R1=CO2-t-Bu, R3=CH3, reference compound], the IC50 turned out to be 111 µM at TEM-1, a penicillinase and 199 µM in test [1]. For `C=C1C(=O)N2C(C(=O)O)=C(COC(C)=O)C(=C)S(=O)(=O)C12` (stereo not shown) [III: R3=CH2OAc, reference compound], the IC50 on TEM-1, a penicillinase was over 2000 µM; in test [1], 315 µM. For the compound “Sodium [2-1(Bisthiomethyl)exomethylene]-7-[(Z)-(2″-pyridinyl)methylene]-3′-desacetoxycephalosporinate [Compound 6g]”, the IC50 amounted to 173 µM on TEM-1, a penicillinase (setting [3]) and 0.51 µM in test [1] (setting [4]).

These data come from US6407091B1, “β-lactamase inhibiting compounds” (Research Corporation Technologies, Inc., priority 1999, dated 2002).
